From PubChem BioAssay (NCI)
Several values for one entry are separate records, joined by “and”; a condition that tells them apart may be missing. Equal values may be shown once.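 All cell lines were grown in 96-well plates and treated with compound for 48 hours. Here, GI50 denotes the concentration required for 50% inhibition of growth. TGI marks complete inhibition of growth.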

Key:
Assay in all cases: NCI-60 cell line screen, 48 h
[1] = system: UO-31 renal
[2] = system: SF-295 CNS
[3] = system: ACHN renal
[4] = system: A549 NSCLC
[5] = system: CAKI-1 renal
[6] = system: HS 578T breast
[7] = system: NCI-H460 lung
[8] = system: SK-OV-3 ovarian
[9] = system: MCF7 breast
[10] = system: OVCAR-4 ovarian

For `COc1ccc(/C(Cl)=C(\C=O)c2ccc([N+](=O)[O-])cc2)cc1OC`, the TGI [1] was 28.9 µM, the TGI [2] was 44.2 µM and the TGI [3] was 25 µM. The TGI [4] was > 100 µM, the TGI [5] was 26.4 µM and the TGI [6] was > 100 µM. It also gave a TGI [7] of 34 µM, a TGI [8] of 60 µM and a TGI [9] of 36.8 µM.

`Cc1ccc(NC(=O)c2cccc([N+](=O)[O-])c2O)c([N+](=O)[O-])c1` was tested, and the TGI [1] was 45.4 µM, the TGI [2] was 32.8 µM and the TGI [3] was 58.1 µM. The TGI [4] was 68 µM, the TGI [5] was > 100 µM and the TGI [10] was 27 µM. For the same molecule, the TGI [7] was 18.9 µM and the TGI [8] was 57.8 µM.

In the case of `O=C(CO)CC(=O)C(=O)Nc1nc([N+](=O)[O-])cs1`, the TGI [1] is reported as > 100 µM, the TGI [2] is reported as > 100 µM and the TGI [3] is reported as > 100 µM. For the same molecule, the TGI [4] was > 100 µM, the TGI [5] was > 100 µM and the TGI [10] was > 100 µM. For the same molecule, the TGI [7] was > 100 µM and the TGI [8] was > 100 µM.

With `CC1C[C@H](OC(N)=O)C(C)CC1=O` (some centres not stated) the TGI [1] was > 100 µM, the TGI [2] was > 100 µM and the TGI [3] was > 100 µM. For the same molecule, the TGI [4] was > 100 µM, the TGI [5] was > 100 µM and the TGI [10] was > 100 µM. The TGI [7] was > 100 µM and the TGI [8] was > 100 µM.

With `CC(C)c1ccccc1NC(=O)C(=O)Cc1nc2ccccc2s1` the TGI [1] was > 100 µM, the TGI [2] was > 100 µM and the TGI [3] was > 100 µM. The TGI [4] was > 100 µM, the TGI [5] was > 100 µM and the TGI [10] was > 100 µM. The TGI [7] was > 100 µM and the TGI [8] was > 100 µM.

`Cc1ccc(-c2nc(SCC(=O)O)n[nH]2)cc1` was tested, and the TGI [1] was > 100 µM, the TGI [2] was > 100 µM and the TGI [3] was > 100 µM. The TGI [4] was > 100 µM, the TGI [5] was > 100 µM and the TGI [10] was > 100 µM. The TGI [7] was > 100 µM and the TGI [8] was > 100 µM.

With `CCOC(=O)C(=O)Nc1c(F)cc(F)cc1Br` the TGI [1] was > 100 µM, the TGI [2] was > 100 µM and the TGI [3] was > 100 µM. For the same molecule, the TGI [4] was > 100 µM, the TGI [5] was > 100 µM and the TGI [10] was > 100 µM. The TGI [7] was > 100 µM and the TGI [8] was > 100 µM.

For `O=C(OCc1ccccc1)N1CCN(/[N+]([O-])=N/Oc2ccc([N+](=O)[O-])cc2[N+](=O)[O-])CC1`, the GI50 [1] was 3.82 µM, the TGI [1] was > 100 µM and the GI50 [2] was 21.5 µM. It also gave a TGI [2] of 49.4 µM, a GI50 [3] of 7.12 µM and a TGI [3] of 26.6 µM. It also gave a GI50 [4] of 21.5 µM, a TGI [4] of 56 µM and a GI50 [5] of 4.8 µM. It also gave a TGI [5] of 15.9 µM, a GI50 [6] of 32.4 µM and a TGI [6] of 97.6 µM. It also gave a GI50 [7] of 9.96 µM, a TGI [7] of 40.6 µM and a GI50 [9] of 2.84 µM. It also gave a TGI [9] of 8.87 µM.

For `COc1ccc2oc3c4c2c1CCC4CCC3=O` (configuration not stated), the TGI [1] was 99.5 µM, the TGI [2] was > 100 µM and the TGI [3] was > 100 µM. The TGI [4] was > 100 µM, the TGI [10] was > 100 µM and the TGI [7] was > 100 µM. The TGI [8] was > 100 µM.

For `COc1ccc(C(O)/C(=N\NC(N)=S)c2nc3ccc([N+](=O)[O-])cc3[nH]c2=O)cc1OC` (configuration not stated), the TGI [1] was > 100 µM, the TGI [2] was > 100 µM and the TGI [3] was > 100 µM. For the same molecule, the TGI [4] was > 100 µM, the TGI [10] was > 100 µM and the TGI [7] was > 100 µM. The TGI [8] was > 100 µM.

For `CC[C@H]1CN2CCc3cc(OC)c(OC)cc3[C@@H]2C[C@@H]1C[C@H]1NCCc2cc(O)c(OC)cc21`, the TGI [1] was 0.15 µM and 1.17 µM, the TGI [2] was 0.0674 µM and 0.0385 µM and 0.153 µM and the GI50 [3] was 0.0221 µM and < 0.0115 µM. For the same molecule, the TGI [3] was 0.0758 µM, the TGI [4] was 0.0652 µM and 0.0527 µM and 0.355 µM and the TGI [5] was 0.0847 µM and 0.375 µM. For the same molecule, the GI50 [6] was 0.0138 µM, the TGI [6] was 0.0539 µM and the TGI [7] was 0.0586 µM and 0.0651 µM and 0.186 µM.

With `CCOC(=O)C(=O)Nc1ccc(C)cc1C` the TGI [1] was > 100 µM, the TGI [2] was > 100 µM and the TGI [3] was > 100 µM. For the same molecule, the TGI [4] was > 100 µM, the TGI [5] was > 100 µM and the TGI [10] was > 100 µM. The TGI [7] was > 100 µM and the TGI [8] was > 100 µM.

Work on `CCNCC(=O)O[C@]1(CC)C(=O)OCc2c1cc1n(c2=O)Cc2cc3ccccc3nc2-1` yielded a TGI [1] of 1.7 µM, a TGI [2] of 4.66 µM and a TGI [3] of 1.98 µM. For the same molecule, the TGI [4] was 13.5 µM, the TGI [5] was 4.65 µM and the TGI [6] was > 100 µM. The TGI [10] was 8.84 µM and the TGI [8] was 10.8 µM.

With `CC(=O)c1ccc(NC(=O)CSc2nnc(-c3cc(-c4ccc(C)cc4)nc4ccccc34)o2)cc1` the GI50 [1] was 1.75 µM, the TGI [1] was 4.5 µM and the GI50 [2] was 2.18 µM. For the same molecule, the TGI [2] was 6.08 µM, the GI50 [4] was 3.01 µM and the TGI [4] was > 100 µM. The GI50 [6] was 4.06 µM, the TGI [6] was 39.4 µM and the GI50 [7] was 2.36 µM. It also gave a TGI [7] of 6.04 µM, a GI50 [8] of 2.64 µM and a TGI [8] of 8.22 µM. For the same molecule, the GI50 [9] was 2.69 µM and the TGI [9] was > 100 µM.

Molecule `CCC[CH2][Sn]([CH2]CCC)([O]C(=O)c1cc(F)cc(F)c1)[O]C(=O)c1cc(F)cc(F)c1` has a GI50 [1] of 1.44 µM, a TGI [1] of 2.75 µM and a GI50 [2] of 1.34 µM. For the same molecule, the TGI [2] was 2.62 µM, the GI50 [3] was 1.33 µM and the TGI [3] was 2.61 µM. The GI50 [4] was 7.13 µM, the TGI [4] was 20.4 µM and the GI50 [10] was 1.6 µM. For the same molecule, the TGI [10] was 3.01 µM, the GI50 [7] was 1.54 µM and the TGI [7] was 3.02 µM. The GI50 [8] was 2.45 µM and the TGI [8] was 5.45 µM.

`O=S(O)CCCCCSSCCCCSSCCCCCS(=O)O` was tested, and the TGI [1] was > 100 µM, the TGI [2] was > 100 µM and the TGI [3] was > 100 µM. For the same molecule, the TGI [4] was > 100 µM, the TGI [5] was > 100 µM and the TGI [10] was > 100 µM. The TGI [7] was > 100 µM and the TGI [8] was > 100 µM.

For `COc1ccc(/C=C2\CCCCC2=O)cc1`, the TGI [1] was > 100 µM, the TGI [2] was > 100 µM and the TGI [3] was > 100 µM. The TGI [4] was > 100 µM, the TGI [5] was > 100 µM and the TGI [10] was > 100 µM. The TGI [7] was > 100 µM and the TGI [8] was > 100 µM.

`CCn1cc(/C=C/C(C)c2cn(CC)c(=O)[nH]c2=O)c(=O)[nH]c1=O` (configuration not stated) was tested, and the TGI [1] was > 100 µM, the TGI [2] was > 100 µM and the TGI [3] was > 100 µM. The TGI [4] was > 100 µM, the TGI [5] was > 100 µM and the TGI [10] was > 100 µM. The TGI [7] was > 100 µM and the TGI [8] was > 100 µM.

Molecule `CN(C)c1ccc(C(=C2C=CC(=[N+](C)C)C=C2)c2ccc(N(C)C)cc2)cc1` (tested in a mixture with another compound) has a TGI [1] of 1.39 µM, a GI50 [2] of 0.0483 µM and a TGI [2] of 0.396 µM. It also gave a GI50 [3] of 0.233 µM, a TGI [3] of 1.48 µM and a GI50 [4] of 0.0326 µM. For the same molecule, the TGI [4] was 0.688 µM, the GI50 [5] was 0.276 µM and the TGI [5] was 1.38 µM. For the same molecule, the GI50 [6] was 0.0479 µM, the TGI [6] was 1.9 µM and the GI50 [10] was 0.183 µM. The TGI [10] was 1.32 µM and the TGI [8] was 0.933 µM.

`Brc1ccc(-c2nnc(-c3nn(-c4ccccc4)c4nc5ccccc5nc34)o2)cc1` was tested, and the TGI [1] was > 100 µM, the TGI [2] was > 100 µM and the TGI [3] was > 100 µM. For the same molecule, the TGI [4] was > 100 µM, the TGI [5] was > 100 µM and the TGI [10] was > 100 µM. The TGI [7] was > 100 µM and the TGI [8] was > 100 µM.

`COc1cc(/C=C/c2cc(/C=C/c3ccc(O)c(OC)c3)n(-c3c(C)cccc3C)c(=O)n2)ccc1O` was tested, and the GI50 [1] was 0.352 µM, the TGI [1] was 2.53 µM and the GI50 [3] was 0.399 µM. It also gave a TGI [3] of 10.6 µM, a GI50 [4] of 1.18 µM and a TGI [4] of 7.6 µM. The GI50 [5] was 0.859 µM, the TGI [5] was 14.9 µM and the GI50 [6] was 0.817 µM. The TGI [6] was > 100 µM, the GI50 [10] was 0.798 µM and the TGI [10] was 8.41 µM. For the same molecule, the GI50 [7] was 0.683 µM, the TGI [7] was 4.37 µM and the GI50 [8] was 0.438 µM. For the same molecule, the TGI [8] was 3.37 µM.
